# Calls of active or inactive are those of the source.
# What was measured:
# [1] = target: T1, Endoribonuclease toxin MazF (Escherichia coli K-12, UniProt P0AE70); test: substrate-only fluorescence increase artefacts – biochemical, single-stranded RNase substrate, counter-screen for MazEF activator project, dose response (AID 588502); type: functional
# T1 sequence (P0AE70 whole entry): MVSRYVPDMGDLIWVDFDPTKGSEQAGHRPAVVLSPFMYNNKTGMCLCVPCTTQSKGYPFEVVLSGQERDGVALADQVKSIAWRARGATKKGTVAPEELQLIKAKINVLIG
# [2] = target: T1, Endoribonuclease toxin MazF; test: activation of MazEF endoribonuclease cleavage – biochemical, fluorescence, single-stranded RNA substrate, uHTS hits, dose response (AID 588481); type: functional
# H9c2 = test: cells; type: functional, cell-based; settings: Rattus norvegicus, H9c2, Myocardium;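 note: confirmatory concentration-response retest of ultra-high-throughput screening hits for modulation of myocardial damage; cell death induced by hydrogen peroxide oxidative stress; compound pretreatment for 60 min then peroxide exposure for 2 h; potency is for protecting the cells against peroxide damage rather than for killing them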
# Cytochrome P450 3A4 = Cytochrome P450 3A4 (Homo sapiens, UniProt P08684); settings: Potency;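 note: confirmatory qHTS run detecting inhibitors and substrates of CYP3A4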
# [3] = target: Heat shock protein HSP 90-alpha (Homo sapiens, UniProt P07900); type: functional, organism-based
# Large T antigen = Large T antigen (Simian virus 40, UniProt P03070); type: functional, Betapolyomavirus macacae;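 note: Confirmatory-stage PubChem screen for compounds that inhibit SV40 T antigen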
# BJ [4] = test: BJ-TERT fibroblast viability loss – cell-based, RAS-independent, luminescence, dose response (AID 1933); type: functional; settings: Homo sapiens
# BJ [5] = test: BJ-TERT-LT-ST fibroblast viability loss – cell-based, RAS-independent, luminescence, dose response (AID 1935); type: functional; settings: Homo sapiens;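 note: BJ fibroblasts immortalized with TERT plus LT and ST oncogenes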
# [6] = DRD fibroblast viability loss – cell-based, non-viral oncogenic, luminescence, dose response (AID 1934); type: functional; settings: Homo sapiens
# [7] = NIH-3T3 fibroblast cytotoxicity, dose response, cytotoxicity control, cell-based, fluorescence, Alamar Blue, secondary assay (AID 2327); type: functional;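 note: NIH-3T3 mouse fibroblasts cultured with fluconazole at 8 µg/mL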
# INS1 = test: INS-1E survival protection against cytokine death – cell-based, luminescence, retest, dose response (AID 449756); type: functional; settings: Rattus norvegicus;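 note: cell death triggered by IL-1 beta plus TNF-alpha plus IFN-gamma mixture; protective hits raise ATP signal compared with cytokine alone wells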
# [8] = fluconazole-exposed Candida albicans growth modulators – fluorescence, retest, confirmation (AID 2467); type: functional, cell-based
# BJ [9] = test: cells; type: functional, cell-based; settings: Homo sapiens
# [10] = microbe, parasite or virus in culture; type: functional; settings: Mycobacterium tuberculosis
# Fatty acid synthase [11] = target: T2, Fatty acid synthase (Homo sapiens, UniProt P49327); test: inhibition of human FAS-TE enzyme activity – biochemical, kinetic fluorescence intensity, dose response (AID 624326); type: functional;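 note: rate of fluorescence rise from hydrolysis of a fluorogenic O-methyl fluorescein ester substrate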
# [12] = target: T3, Corticotropin-releasing factor receptor 2/Corticotropin-releasing factor-binding protein (Homo sapiens, UniProt P24387+Q13324); test: Dose Response confirmation of uHTS hits for small molecule antagonists of the CRF-binding protein and CRF-R2 receptor complex.; type: functional; settings: read-out: IC50_Mean
# T3 sequence (Q13324 whole entry): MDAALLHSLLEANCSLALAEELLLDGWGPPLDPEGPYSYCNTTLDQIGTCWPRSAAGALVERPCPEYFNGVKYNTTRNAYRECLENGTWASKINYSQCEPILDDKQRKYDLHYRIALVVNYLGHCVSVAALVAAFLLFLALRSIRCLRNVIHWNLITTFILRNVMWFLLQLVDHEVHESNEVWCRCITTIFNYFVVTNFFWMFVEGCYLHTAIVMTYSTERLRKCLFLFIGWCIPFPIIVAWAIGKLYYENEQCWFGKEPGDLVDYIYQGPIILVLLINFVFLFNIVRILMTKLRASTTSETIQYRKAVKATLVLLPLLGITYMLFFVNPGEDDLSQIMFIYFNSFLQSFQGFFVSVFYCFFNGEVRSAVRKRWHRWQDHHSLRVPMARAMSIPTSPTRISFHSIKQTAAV
# T3 sequence (P24387 whole entry): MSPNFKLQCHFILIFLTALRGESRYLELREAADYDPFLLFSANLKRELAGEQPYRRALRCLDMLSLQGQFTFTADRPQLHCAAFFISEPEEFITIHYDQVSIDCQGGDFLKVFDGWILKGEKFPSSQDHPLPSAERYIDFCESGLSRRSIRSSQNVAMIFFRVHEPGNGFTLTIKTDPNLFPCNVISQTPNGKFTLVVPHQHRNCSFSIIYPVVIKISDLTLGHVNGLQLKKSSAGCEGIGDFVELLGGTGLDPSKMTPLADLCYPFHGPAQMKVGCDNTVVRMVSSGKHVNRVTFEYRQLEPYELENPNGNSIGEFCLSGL
# Fatty acid synthase [13] = target: T2, Fatty acid synthase; test: inhibition of human FAS-TE enzyme activity – biochemical, endpoint fluorescence intensity, uHTS hits, dose response (AID 624327); type: functional;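 note: fluorescence from hydrolysis of an O-methyl fluorescein acyl ester substrate by the enzyme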
# [14] = target: T3, Corticotropin-releasing factor receptor 2/Corticotropin-releasing factor-binding protein; test: activators of CRF receptor 2 with binding protein – uHTS hits, confirmation (AID 602473); type: functional; settings: read-out: EC50_Mean
# [15] = target: T4, Rac GTPase-activating protein 1 (Homo sapiens, UniProt Q9H0H5); test: blockers of MgcRacGAP-driven Rac1 GTP hydrolysis – biochemical, ADP Hunter fluorescence, primary and confirmatory, confirmation (AID 624330); type: functional
# T4 sequence (Q9H0H5 whole entry): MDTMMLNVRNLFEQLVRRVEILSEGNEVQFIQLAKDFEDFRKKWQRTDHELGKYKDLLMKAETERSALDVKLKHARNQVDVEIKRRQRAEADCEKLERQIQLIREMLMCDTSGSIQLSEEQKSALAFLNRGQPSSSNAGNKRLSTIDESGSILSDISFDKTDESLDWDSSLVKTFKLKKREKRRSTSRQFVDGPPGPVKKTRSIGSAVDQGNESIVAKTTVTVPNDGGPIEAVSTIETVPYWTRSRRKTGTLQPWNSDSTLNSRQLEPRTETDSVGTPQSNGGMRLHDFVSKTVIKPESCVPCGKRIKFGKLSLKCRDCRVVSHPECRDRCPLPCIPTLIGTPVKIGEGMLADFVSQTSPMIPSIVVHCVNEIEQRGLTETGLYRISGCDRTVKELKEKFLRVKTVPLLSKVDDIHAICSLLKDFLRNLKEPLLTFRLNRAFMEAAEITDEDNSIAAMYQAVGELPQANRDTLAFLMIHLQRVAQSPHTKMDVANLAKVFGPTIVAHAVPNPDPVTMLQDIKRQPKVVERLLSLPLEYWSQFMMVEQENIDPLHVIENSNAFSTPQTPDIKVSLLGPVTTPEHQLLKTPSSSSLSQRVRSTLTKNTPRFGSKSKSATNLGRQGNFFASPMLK
# Streptokinase A = target: T5, Streptokinase A (Streptococcus pyogenes serotype M1, UniProt P10520); test: viability-normalized secreted streptokinase activity reduction – plasminogen activation absorbance, OD405, dose response (AID 1914); type: functional, Streptococcus pyogenes M1 GAS;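 note: secreted streptokinase activity via plasminogen activation per viability signal from cell pellet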
# T5 sequence (P10520 whole entry): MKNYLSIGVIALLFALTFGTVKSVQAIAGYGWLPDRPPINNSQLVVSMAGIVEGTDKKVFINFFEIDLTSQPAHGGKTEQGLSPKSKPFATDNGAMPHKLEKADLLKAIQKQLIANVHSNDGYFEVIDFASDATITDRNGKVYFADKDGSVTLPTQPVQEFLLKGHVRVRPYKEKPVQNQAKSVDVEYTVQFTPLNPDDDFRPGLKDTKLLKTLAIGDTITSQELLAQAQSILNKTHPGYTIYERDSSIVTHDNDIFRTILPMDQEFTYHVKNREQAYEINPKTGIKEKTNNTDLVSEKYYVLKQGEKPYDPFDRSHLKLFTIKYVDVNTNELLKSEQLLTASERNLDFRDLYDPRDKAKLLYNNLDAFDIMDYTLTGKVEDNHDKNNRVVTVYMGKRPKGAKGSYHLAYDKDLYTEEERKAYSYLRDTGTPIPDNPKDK
# [16] = tested on: Streptococcus sp. 'group A'; test: Streptococcus pyogenes SK(-)GAS viability under kanamycin – luminescence, BacTiterGlo, confirmation, counter-screen for streptokinase expression inhibitor project, dose response (AID 1900); type: functional, organism-based
# Streptococcus = test: GAS UMAA2166 growth inhibition – luminescence, BacTiterGlo, counter-screen for streptokinase expression inhibitor project, dose response (AID 1915); type: functional, organism-based;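 note: potency for reduction of bacterial viability or growth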
# [17] = alpha-synuclein stem-loop luciferase translation blockers – H4 neuroglioma cells, luminescence, confirmation (AID 1988); type: functional, cell-based
# [18] = luciferase reporter signal suppression in cells – H4 neuroglioma cells, luminescence, dose response (AID 1990); type: functional, cell-based
# [19] = Luminescence Cell-Based Dose Response HTS to Identify Inhibitors of 5'UTR Stem-Loop Driven Prion Protein mRNA Translation in H4 Neuroglioblastoma Cells. [Related pubchem assays: 1827 (Project Summary), 1813 (Primary HTS)]; type: functional
# Sequence of Cytochrome P450 3A4 (P08684 whole entry): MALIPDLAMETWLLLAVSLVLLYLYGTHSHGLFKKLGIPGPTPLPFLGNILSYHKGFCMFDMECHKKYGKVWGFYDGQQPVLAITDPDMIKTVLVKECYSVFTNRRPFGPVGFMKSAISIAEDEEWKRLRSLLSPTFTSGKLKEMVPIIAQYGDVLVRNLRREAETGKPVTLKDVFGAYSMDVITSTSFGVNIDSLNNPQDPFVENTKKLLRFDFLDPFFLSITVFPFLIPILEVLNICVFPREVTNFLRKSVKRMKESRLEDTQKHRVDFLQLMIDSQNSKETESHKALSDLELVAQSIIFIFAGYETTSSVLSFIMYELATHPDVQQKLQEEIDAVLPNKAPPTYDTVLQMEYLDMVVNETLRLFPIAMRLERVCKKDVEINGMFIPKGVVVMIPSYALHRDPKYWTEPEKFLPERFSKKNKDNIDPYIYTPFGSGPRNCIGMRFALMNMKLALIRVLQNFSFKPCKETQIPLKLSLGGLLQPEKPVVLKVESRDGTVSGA
# Sequence of Large T antigen (P03070 whole entry): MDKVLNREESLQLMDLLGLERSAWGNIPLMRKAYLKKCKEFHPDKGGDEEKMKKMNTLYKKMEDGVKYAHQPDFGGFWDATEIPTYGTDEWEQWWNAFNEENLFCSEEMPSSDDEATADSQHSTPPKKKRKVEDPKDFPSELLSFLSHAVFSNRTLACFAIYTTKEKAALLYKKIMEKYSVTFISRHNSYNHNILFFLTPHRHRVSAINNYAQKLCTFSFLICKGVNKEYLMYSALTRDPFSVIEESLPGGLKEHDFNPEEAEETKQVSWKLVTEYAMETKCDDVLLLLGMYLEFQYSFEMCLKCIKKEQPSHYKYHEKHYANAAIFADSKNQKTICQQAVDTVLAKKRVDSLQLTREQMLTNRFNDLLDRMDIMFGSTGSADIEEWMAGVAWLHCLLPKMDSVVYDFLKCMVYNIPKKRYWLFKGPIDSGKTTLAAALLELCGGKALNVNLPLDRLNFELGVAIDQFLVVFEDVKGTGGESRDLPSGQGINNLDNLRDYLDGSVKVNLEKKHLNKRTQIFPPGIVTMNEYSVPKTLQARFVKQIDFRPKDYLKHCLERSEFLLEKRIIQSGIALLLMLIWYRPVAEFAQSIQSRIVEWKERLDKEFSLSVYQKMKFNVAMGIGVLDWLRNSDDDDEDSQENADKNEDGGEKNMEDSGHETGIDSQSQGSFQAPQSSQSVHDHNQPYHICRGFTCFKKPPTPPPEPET
# T2 sequence (P49327 whole entry): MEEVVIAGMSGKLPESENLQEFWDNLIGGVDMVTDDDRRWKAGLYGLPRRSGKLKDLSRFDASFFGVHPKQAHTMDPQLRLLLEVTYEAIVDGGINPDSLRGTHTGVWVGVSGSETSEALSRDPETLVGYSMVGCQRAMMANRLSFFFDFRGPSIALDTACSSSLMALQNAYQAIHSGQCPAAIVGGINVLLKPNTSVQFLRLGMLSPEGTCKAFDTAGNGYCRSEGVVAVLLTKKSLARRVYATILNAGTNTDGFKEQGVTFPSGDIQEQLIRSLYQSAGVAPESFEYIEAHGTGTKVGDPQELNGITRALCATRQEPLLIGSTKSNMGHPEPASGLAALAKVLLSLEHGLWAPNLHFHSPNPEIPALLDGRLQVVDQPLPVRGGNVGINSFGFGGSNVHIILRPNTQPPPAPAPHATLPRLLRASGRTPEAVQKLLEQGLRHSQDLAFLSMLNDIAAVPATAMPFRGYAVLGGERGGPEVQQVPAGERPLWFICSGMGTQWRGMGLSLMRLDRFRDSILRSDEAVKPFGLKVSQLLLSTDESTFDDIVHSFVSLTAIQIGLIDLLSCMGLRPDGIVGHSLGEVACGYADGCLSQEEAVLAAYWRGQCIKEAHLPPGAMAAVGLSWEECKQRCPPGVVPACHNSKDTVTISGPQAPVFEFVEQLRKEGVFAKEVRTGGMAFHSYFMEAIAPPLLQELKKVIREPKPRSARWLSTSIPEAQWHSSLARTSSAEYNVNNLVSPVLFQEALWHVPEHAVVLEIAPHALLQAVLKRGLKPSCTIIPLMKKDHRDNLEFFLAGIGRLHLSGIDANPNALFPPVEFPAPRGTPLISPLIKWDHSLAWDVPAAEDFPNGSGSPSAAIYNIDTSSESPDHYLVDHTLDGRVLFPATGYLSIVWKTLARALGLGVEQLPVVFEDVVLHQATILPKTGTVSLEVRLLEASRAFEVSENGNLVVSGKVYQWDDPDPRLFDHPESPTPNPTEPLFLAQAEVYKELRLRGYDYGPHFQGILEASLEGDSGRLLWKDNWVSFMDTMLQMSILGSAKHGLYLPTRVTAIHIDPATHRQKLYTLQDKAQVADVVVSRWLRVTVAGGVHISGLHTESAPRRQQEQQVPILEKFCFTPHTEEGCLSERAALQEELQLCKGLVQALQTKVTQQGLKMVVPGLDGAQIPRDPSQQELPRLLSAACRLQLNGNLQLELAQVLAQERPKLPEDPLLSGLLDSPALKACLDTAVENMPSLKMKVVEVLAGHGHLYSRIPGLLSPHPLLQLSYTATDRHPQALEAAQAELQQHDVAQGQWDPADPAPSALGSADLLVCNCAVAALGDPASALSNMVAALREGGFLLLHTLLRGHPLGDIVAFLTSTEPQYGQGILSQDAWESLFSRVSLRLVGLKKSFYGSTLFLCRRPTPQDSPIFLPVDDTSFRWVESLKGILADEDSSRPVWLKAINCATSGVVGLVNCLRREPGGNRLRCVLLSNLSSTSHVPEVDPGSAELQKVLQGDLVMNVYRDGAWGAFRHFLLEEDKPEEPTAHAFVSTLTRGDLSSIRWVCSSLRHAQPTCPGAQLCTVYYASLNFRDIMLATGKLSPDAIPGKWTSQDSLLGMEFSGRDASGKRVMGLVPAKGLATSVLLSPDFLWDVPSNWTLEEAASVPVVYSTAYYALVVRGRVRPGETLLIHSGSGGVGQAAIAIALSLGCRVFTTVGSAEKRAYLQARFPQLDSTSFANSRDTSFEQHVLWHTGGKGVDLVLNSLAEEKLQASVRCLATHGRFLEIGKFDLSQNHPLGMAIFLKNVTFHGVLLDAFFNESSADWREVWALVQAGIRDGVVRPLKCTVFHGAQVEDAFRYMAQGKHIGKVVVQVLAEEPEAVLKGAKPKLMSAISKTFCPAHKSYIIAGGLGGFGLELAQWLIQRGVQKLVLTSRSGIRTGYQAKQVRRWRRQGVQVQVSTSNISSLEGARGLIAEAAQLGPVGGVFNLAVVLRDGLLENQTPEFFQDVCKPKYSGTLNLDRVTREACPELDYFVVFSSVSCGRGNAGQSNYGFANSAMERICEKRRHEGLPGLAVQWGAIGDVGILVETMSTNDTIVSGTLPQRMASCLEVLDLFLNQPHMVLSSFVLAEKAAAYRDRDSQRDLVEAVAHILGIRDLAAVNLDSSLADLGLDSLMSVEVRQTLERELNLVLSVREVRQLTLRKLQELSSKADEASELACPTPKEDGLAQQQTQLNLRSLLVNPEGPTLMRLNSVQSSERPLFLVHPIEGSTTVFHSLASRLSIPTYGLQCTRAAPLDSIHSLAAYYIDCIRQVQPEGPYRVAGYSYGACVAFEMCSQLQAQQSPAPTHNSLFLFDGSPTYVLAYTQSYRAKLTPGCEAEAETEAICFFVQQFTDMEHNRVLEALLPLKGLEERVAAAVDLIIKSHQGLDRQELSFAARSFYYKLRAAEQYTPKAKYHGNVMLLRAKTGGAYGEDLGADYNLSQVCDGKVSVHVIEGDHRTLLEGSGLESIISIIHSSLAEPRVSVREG
smiles,measurement,setting,value
CCc1ccc(C2=NN(S(C)(=O)=O)C(c3cccs3)C2)cc1 (configuration not stated),EC50,[1],> 99 µM (inactive)
same,EC50,[2],> 99 µM (inactive)
Cc1nc(OCc2ccccc2)c2ccccc2n1,IC50,H9c2,> 79 µM (inactive)
CC(=O)Oc1cc2c(c(C)c1OC(C)=O)CC=C1[C@]3(C)CC[C@]4(C)CC[C@@](C)(C(=O)O)CC4[C@]3(C)CC[C@]12C (some centres not stated),AC50,Cytochrome P450 3A4,31.6 µM (inconclusive)
N#CSCC(=O)c1cccc2ccccc12,AC50,[3],1.61 µM (active)
same,IC50,Large T antigen,20.6 µM (active)
COc1ccc(C2/C=C\CN(S(=O)(=O)c3cccc4cccnc34)CC(=O)N2Cc2ccc(F)cc2)cc1 (configuration not stated),IC50,H9c2,> 79 µM (inactive)
Oc1nc(CN2CCCC2)nc2sc3c(c12)CCC3,IC50,H9c2,> 79 µM (inactive)
Clc1nccc2c1ccc1ccccc12,AC50,Cytochrome P450 3A4,12.6 µM (inconclusive)
COc1ccc(NC(=O)C(OC(=O)c2ccc([N+](=O)[O-])o2)c2ccccc2)cc1Cl (configuration not stated),IC50,H9c2,> 79 µM (inactive)
CCN(CC)C(=O)c1ccc2c3c(cccc13)C(=O)N(CCc1ccc(OC)c(OC)c1)C2=O,IC50,H9c2,> 79 µM (inactive)
CCn1cc(/C=C/c2cc[n+](C)cc2)c2ccccc21,EC50,BJ [4],23.8 µM (active)
same,EC50,BJ [5],> 150 µM (not active)
same,EC50,[6],> 150 µM (not active)
same,EC50,[7],> 150 µM (inconclusive)
same,AC50,INS1,4.58 µM (active)
same,EC50,[8],0.946 µM (active)
same,EC50,BJ [9],> 150 µM (not active)
CCOC(=O)c1ccc(CC(=O)c2oc3cc(O)ccc3c2C)o1,EC50,[1],81.2 µM (inactive)
same,EC50,[2],> 99 µM (inactive)
COc1ccc(OCC(=O)Nc2c(C(=O)N(CCN(C)C)Cc3ccco3)oc3ccccc23)cc1,EC50,[7],> 160 µM (inactive)
same,EC50,[8],> 38 µM (not active)
same,CC50,[10],> 40 µM (active)
CCCn1c(-c2ccc(F)cc2)nc2c(NC(C)CN(C)C)nc(C)nc21 (configuration not stated),AC50,Cytochrome P450 3A4,20 µM (inconclusive)
CCCCCCCC#Cc1ccccc1/C=N/[S+]([O-])C(C)(C)C (configuration not stated),AC50,Cytochrome P450 3A4,3.16 µM (inconclusive)
NC(=O)c1c(NC(=O)Cn2nc(C(=O)O)c3ccccc3c2=O)sc2c1CCC2,IC50,H9c2,> 79 µM (inactive)
O=C(NCCCc1ccccc1)c1cccc([N+](=O)[O-])c1,IC50,Fatty acid synthase [11],4.33 µM (active)
same,IC50,[12],> 47.1 µM (inactive)
same,IC50,Fatty acid synthase [13],5.56 µM (active)
same,EC50,[14],> 53 µM (inactive)
CCOC(=O)c1[nH]c2ccc(C)cc2c1N,EC50,[7],> 160 µM (inconclusive)
same,IC50,[15],24.1 µM (active)
same,EC50,[8],> 38 µM (not active)
COc1cc(NC(=O)c2ccccc2)c(OC)cc1NC(=O)Cc1ccc(Br)cc1,EC50,[1],> 99 µM (inactive)
same,EC50,[2],29.6 µM (inactive)
O=C(C1CC1)N1CCN(c2ccc(O)cc2)CC1,IC50,Large T antigen,11.5 µM (active)
Cc1cc(C)n(-c2nc3nonc3nc2Nc2cccc(C)c2C)n1,EC50,[1],> 99 µM (inactive)
same,EC50,[2],> 99 µM (inactive)
COc1ccc(Cl)cc1NC(=O)CN(C)C(=O)Cn1[nH]c(=O)c2ccccc2c1=O,IC50,H9c2,20.7 µM (active)
COc1ccc(OC)c(C(=O)COC(=O)c2ccc([N+](=O)[O-])o2)c1,IC50,H9c2,> 79 µM (inactive)
CCOC(=O)c1cc2c(=O)n3ccccc3nc2n(Cc2ccco2)/c1=N/C(=O)c1cccnc1,IC50,H9c2,24.3 µM (active)
CCc1cc(C(=O)N/N=C/c2ccc(O)cc2)c2ccccc2n1,IC50,Large T antigen,> 100 µM (active)
CCN1C[C@@]2(COC)C3[C@@H](OC)C4[C@@H]1[C@@]3(C1C[C@@]3(O)[C@H](OC(=O)c5ccccc5)C1[C@]4(OC(C)=O)[C@@H](O)[C@@H]3OC)[C@@H](OC)C[C@H]2O (some centres not stated),AC50,Cytochrome P450 3A4,31.6 µM (inconclusive)
CCOc1cc(/C=N/Nc2nc(C)cc(O)n2)ccc1O,IC50,Large T antigen,24.9 µM (active)
Cc1ccc(/C=N/NC(=O)C2=NNC(c3ccccc3)(c3ccccc3)C2)c(O)c1,EC50,Streptokinase A,> 150 µM (not active)
same,EC50,[16],2.9 µM (active)
same,EC50,[7],8.56 µM (active)
same,EC50,Streptococcus,> 150 µM (not active)
same,EC50,[8],2.3 µM (active)
COc1ccc(-c2nn(-c3ccccc3)cc2/C=N/NC(=S)NC(C)C)cc1OC,EC50,[17],48.4 µM (active)
same,EC50,[18],20.2 µM (active)
same,EC50,[7],22.9 µM (active)
same,EC50,[19],> 120 µM (not active)
same,EC50,[8],> 38 µM (not active)
Oc1ccc(Nc2nc(NCC3CCCO3)c3ccccc3n2)cc1 (configuration not stated),IC50,Large T antigen,9.48 µM (active)
COc1cc(O)c(C(=O)/C=C/c2ccccc2)c(OC)c1 [FLAVOKAWAIN B],AC50,Cytochrome P450 3A4,15.8 µM (inconclusive)
COc1cc(O)cc(/C=C/c2ccccc2)c1 [PINOSYLVIN METHYL ETHER],AC50,Cytochrome P450 3A4,31.6 µM (inconclusive)
